Results from US8637516B2 (IRM LLC, priority 2010, dated 2014).

Assays:
[1] = biological target: T1, Ba/F3 cells transformed with human Tel-TrkA (Homo sapiens, UniProt P04629); experiment: Proliferation of Ba/F3 cells transformed with human Tel-TrkA (Ba/F3 Tel-TrkA); type: cell-based; settings: Table 1; 48 hours, Bright Glo luminescence; read-out: Ba/F3 Tel-TrkA
T1 construct: expressed in transfected cells; host or cells: Ba/F3 murine hematopoietic progenitor cells (luciferase expressing); the other entry of the earlier key: ETV6 (P41212, Transcription factor ETV6)
T1 sequence (P04629 510-796 limits assumed): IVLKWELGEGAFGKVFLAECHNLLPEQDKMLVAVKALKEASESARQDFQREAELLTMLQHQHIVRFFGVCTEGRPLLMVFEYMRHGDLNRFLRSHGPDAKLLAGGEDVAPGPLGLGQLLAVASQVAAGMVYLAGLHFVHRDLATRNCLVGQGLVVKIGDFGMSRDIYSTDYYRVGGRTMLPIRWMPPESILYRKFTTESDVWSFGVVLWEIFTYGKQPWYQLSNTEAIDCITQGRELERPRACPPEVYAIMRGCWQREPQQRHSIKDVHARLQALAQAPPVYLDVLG
Source text: (§1) Compound dilutions were made in 384 well plates.
(§2) The emited luminiscence is quantified using ViewLux (PerkinElmer).

[2] = tested on: parental Ba/F3 cells; experiment: Proliferation of parental (untransformed, wt) Ba/F3 cells (BAF3/WT); type: cell-based, murine; settings: Mus musculus, Table 1, parental cells with IL3, 48 hours
Procedure: as §1
Compounds were tested for their ability to inhibit the proliferation of wt Ba/F3 cells and Ba/F3 cells transformed with constitutively expressed luciferase reporter and BCR-ABL or Tel-FMS or other Tel fusion kinases (EGFR, JAK2, ALK, BMX, FGFR3, FGFR4, FGR2, FLT1, FLT3, IGF1R, INSR, KDR, KIT, LCK, LYN, MEK, MET, PDGFRα, PDGFRβ, RET, RON, ROS, SRC, SYK, TIE and TYRO) or BRafV600E. Parental Ba/F3 cells were maintained in media containing recombinant mouse IL3 and the kinase transformed Ba/F3 cells were maintained in media without IL-3. 7.5 nl of compounds were spotted to each well of 1536-well assay plates by Liquid handling System Echo 555 (Labcyte). 700 cells were then plated into each well of the assay plates in 7 uL culture media per well and compounds were tested at 0.17 nM to 10 uM in 3-fold serial dilutions. The cells were then incubated for 48 hours at 37° C. 3 uL of Bright-Glo® (Promega) was added to each well and the plates were read using ViewLux (PerkinElmer).
as §2

Structure (SMILES) | IC50 [1] | IC50 [2]
CS(=O)(=O)N1CCC(NC(=O)c2cnc3ccc(N4C[C@@H](F)C[C@@H]4c4cccc(F)c4)nn23)CC1 [X-121] | 2 nM | 5140 nM
CCOC(=O)c1cnc2ccc(N3CCC(=O)C3c3cccc(F)c3)nn12 (centres unmarked) [X-159, ethyl 6-(2-(3-fluorophenyl)-3-oxopyrrolidin-1-yl)imidazo[1,2-b]pyridazine-3-carboxylate] | 251 nM | > 10000 nM
NC(=O)c1cnc2ccc(N3CCOC[C@H]3c3cccc(F)c3)nn12 [X-17, (R)-6-(3-(3-fluorophenyl)morpholino)imidazo[1,2-b]pyridazine-3-carboxamide] | 328 nM | > 10000 nM
O=C(NOCCO)c1cnc2ccc(N3CCC[C@@H]3c3cccc(F)c3)nn12 [X-147] | 31 nM | > 10000 nM
O=C(NCC1CCC1)c1cnc2ccc(N3CCC[C@@H]3c3cccc(F)c3)nn12 [X-22] | 47 nM | > 10000 nM
O=C(NCc1ccccc1F)c1cnc2ccc(N3CCC[C@@H]3c3cccc(F)c3)nn12 [X-69] | 104 nM | > 10000 nM
O=C(NCc1cccc(F)c1)c1cnc2ccc(N3CCC[C@@H]3c3cccc(F)c3)nn12 [X-74] | 70 nM | > 10000 nM
CC(C)(C)OC(=O)N1CCC(NC(=O)c2cnc3ccc(N4CCC[C@@H]4c4cccc(F)c4)nn23)CC1 [X-63] | 60 nM | > 10000 nM
O=C(NC1CCCC1)c1cnc2ccc(N3CCC[C@@H]3c3cccc(F)c3)nn12 [X-48] | 37 nM | > 10000 nM
CCN(CC)CCCNC(=O)c1cnc2ccc(N3CCC[C@H]3c3cccc(F)c3)nn12 [X-40] | 951 nM | > 10000 nM
O=C(N[C@H]1CCCC[C@@H]1O)c1cnc2ccc(N3CCC[C@@H]3c3cccc(F)c3)nn12 [X-82] | 89 nM | > 10000 nM
O=C(NCCC1CCCO1)c1cnc2ccc(N3CCC[C@@H]3c3cccc(F)c3)nn12 (some centres unmarked) [X-23] | 92 nM | > 10000 nM
CCOC(=O)c1cnc2ccc(N3CCC[C@@H]3c3cccc(F)c3)nn12 [X-158, (R)-ethyl 6-(2-(3-fluorophenyl)pyrrolidin-1-yl)imidazo[1,2-b]pyridazine-3-carboxylate] | 93 nM | > 10000 nM
Cn1cccc1/C=C/C(=O)c1cnc2ccc(N3CCC[C@@H]3c3cccc(F)c3)nn12 [X-130] | 24 nM | > 10000 nM
CC(C)S(=O)(=O)N1CCC(NC(=O)c2cnc3ccc(N4CCC[C@@H]4c4cccc(F)c4)nn23)CC1 [X-32] | 19 nM | > 10000 nM
O=C(NCC(F)(F)F)c1cnc2ccc(N3CCC[C@@H]3c3cccc(F)c3)nn12 [X-53] | 3 nM | > 10000 nM
Fc1cccc([C@H]2CCCN2c2ccc3ncc(Br)n3n2)c1 [X-1, (R)-3-bromo-6-(2-(3-fluorophenyl)pyrrolidin-1-yl)imidazo[1,2-b]pyridazine] | 316 nM | > 10000 nM
O=C(NCCF)c1cnc2ccc(N3C[C@@H](F)C[C@@H]3c3cccc(F)c3)nn12 [X-112, 6-((2R,4S)-4-fluoro-2-(3-fluorophenyl)pyrrolidin-1-yl)-N-(2-fluoroethyl)imidazo[1,2-b]pyridazine-3-carboxamide] | – | 5450 nM
N/C(=N\OCCO)c1cnc2ccc(N3CCC[C@@H]3c3cccc(F)c3)nn12 [X-229] | 331 nM | > 10000 nM
CCOC(=O)c1cnc2ccc(N3C[C@H](F)C[C@H]3c3cccc(F)c3)nn12 [X-166, ethyl 6-((2S,4R)-4-fluoro-2-(3-fluorophenyl)pyrrolidin-1-yl)imidazo[1,2-b]pyridazine-3-carboxylate] | 314 nM | > 10000 nM
CS(=O)(=O)N1CC(NC(=O)c2cnc3ccc(N4CCC[C@@H]4c4cccc(F)c4)nn23)C1 [X-68] | 38 nM | > 10000 nM
CCOC(=O)c1cnc2ccc(N3C[C@@H](F)C[C@@H]3c3cc(F)cc(C#N)c3)nn12 [X-243] | 2 nM | > 10000 nM
[2H]C1(c2cccc(F)c2)CCCN1c1ccc2ncc(C(N)=O)n2n1 (centres unmarked) [X-8, 6-(2-(3-fluorophenyl)pyrrolidin-1-yl)imidazo[1,2-b]pyridazine-3-carboxamide] | 150 nM | > 10000 nM
CCOC(=O)c1cnc2ccc(N3CCCCC3c3cccc(F)c3)nn12 (centres unmarked) [X-156, ethyl 6-(2-(3-fluorophenyl)piperidin-1-yl)imidazo[1,2-b]pyridazine-3-carboxylate] | 93 nM | > 10000 nM
COC(=O)[C@@H](CO)NC(=O)c1cnc2ccc(N3CCC[C@@H]3c3cccc(F)c3)nn12 [X-98] | 354 nM | > 10000 nM
[2H]C1([2H])CC[C@@H](c2cccc(F)c2)N1c1ccc2ncc(C(N)=O)n2n1 [X-10] | 841 nM | > 10000 nM

Structure (SMILES) | IC50 [1] | IC50 [2]
[2H][C@]1(c2cccc(F)c2)CCCN1c1ccc2ncc(C(N)=O)n2n1 [X-9] | 12 nM | > 10000 nM
O=C(NC1CCCCC1)c1cnc2ccc(N3CCC[C@@H]3c3cccc(F)c3)nn12 [X-49] | 22 nM | > 9340 nM
O=C(COc1ccc(F)cc1)Nc1cnc2ccc(N3CCC[C@@H]3c3cccc(F)c3)nn12 [X-26] | 85 nM | > 10000 nM
O=C(NCc1ccc(Cl)nc1)c1cnc2ccc(N3CCC[C@@H]3c3cccc(F)c3)nn12 [X-57] | 190 nM | > 10000 nM
CN(C)CCNC(=O)c1cnc2ccc(N3CCC[C@@H]3c3cccc(F)c3)nn12 [X-56] | 676 nM | > 10000 nM
CCOC(=O)N1CCC(NC(=O)c2cnc3ccc(N4CCC[C@@H]4c4cccc(F)c4)nn23)CC1 [X-50] | 40 nM | > 10000 nM
O=C(NC1CCC1)c1cnc2ccc(N3CCC[C@@H]3c3cccc(F)c3)nn12 [X-46] | 20 nM | > 10000 nM
N#Cc1ccc(CNC(=O)c2cnc3ccc(N4CCC[C@@H]4c4cccc(F)c4)nn23)cc1 [X-89] | 164 nM | > 10000 nM
O=C(NCC1CC1)c1cnc2ccc(N3CCC[C@@H]3c3cccc(F)c3)nn12 [X-90] | 14 nM | > 10000 nM
[2H]C1([2H])N(c2ccc3ncc(C(N)=O)n3n2)C([2H])(c2cccc(F)c2)C([2H])([2H])C1([2H])[2H] (centres unmarked) [X-13] | 110 nM | > 10000 nM
COCC(=O)Nc1cnc2ccc(N3CCC[C@@H]3c3cccc(F)c3)nn12 [X-200] | 23 nM | > 8830 nM
N#Cc1cnc2ccc(N3CCC[C@@H]3c3cccc(F)c3)nn12 [X-2, (R)-6-(2-(3-fluorophenyl)pyrrolidin-1-yl)imidazo[1,2-b]pyridazine-3-carbonitrile] | 268 nM | > 10000 nM
CC(=O)N1CCC(NC(=O)c2cnc3ccc(N4CCC[C@@H]4c4cccc(F)c4)nn23)CC1 [X-67] | 81 nM | > 10000 nM
N#Cc1cnc2ccc(N3CC(F)(F)C[C@@H]3c3cccc(F)c3)nn12 [X-246, (R)-6-(4,4-difluoro-2-(3-fluorophenyl)pyrrolidin-1-yl)imidazo[1,2-b]pyridazine-3-carbonitrile] | 56 nM | > 10000 nM
CCNC(=O)c1cnc2ccc(N3CCCC3c3cccc(F)c3)nn12 (centres unmarked) [X-21] | 42 nM | > 10000 nM
CC(C)(C)[C@@H](CO)NC(=O)c1cnc2ccc(N3CCC[C@@H]3c3cccc(F)c3)nn12 [X-103] | 379 nM | > 10000 nM
COc1ccc(OCC(=O)Nc2cnc3ccc(N4CCC[C@@H]4c4cccc(F)c4)nn23)cc1 [X-186] | 78 nM | > 10000 nM
N#Cc1cccc(NC(=O)c2cnc3ccc(N4CCC[C@@H]4c4cccc(F)c4)nn23)c1 [X-65, (R)-N-(3-cyanophenyl)-6-(2-(3-fluorophenyl)pyrrolidin-1-yl)imidazo[1,2-b]pyridazine-3-carboxamide] | 92 nM | > 9510 nM
CC(C)(C)OC(=O)N1CC[C@@H](NC(=O)c2cnc3ccc(N4CCC[C@@H]4c4cccc(F)c4)nn23)C1 [X-62] | 910 nM | > 10000 nM
CCCS(=O)(=O)N1CCC(NC(=O)c2cnc3ccc(N4CCC[C@@H]4c4cccc(F)c4)nn23)CC1 [X-35] | 26 nM | > 10000 nM
NC(=NO)c1cnc2ccc(N3CCCC3c3cccc(F)c3)nn12 (centres unmarked) [X-226] | 165 nM | > 10000 nM
O=C(Nc1cnc2ccc(N3CC(F)(F)C[C@@H]3c3cccc(F)c3)nn12)Oc1ccccc1 [X-238] | 445 nM | > 10000 nM
O=C(NC1CCCOC1)c1cnc2ccc(N3CCC[C@@H]3c3cccc(F)c3)nn12 (some centres unmarked) [X-97] | 8 nM | > 10000 nM
NS(=O)(=O)N1CCC(NC(=O)c2cnc3ccc(N4CCC[C@@H]4c4cccc(F)c4)nn23)CC1 [X-29, (R)-6-(2-(3-fluorophenyl)pyrrolidin-1-yl)-N-(1-sulfamoylpiperidin-4-yl)imidazo[1,2-b]pyridazine-3-carboxamide] | 239 nM | > 10000 nM
O=C(NC(CO)(CO)CO)c1cnc2ccc(N3CCC[C@@H]3c3cccc(F)c3)nn12 [X-101] | 452 nM | > 10000 nM
